As a reminder, the melting point is the temperature, or range, at which the solid turns liquid. As for `COc1c(C(=O)NNS(=O)(=O)c2ccccc2)oc2ccc(-c3ccccc3)cc12` (hydrate or solvate) [Example 65, 2-Benzofurancarboxylic acid, 3-methoxy-5-phenyl-, 2-(phenylsulfonyl)hydrazide], the melting point lay in the range of 180.7 to 181.3 °C. Then `COc1c(C(=O)NNS(=O)(=O)c2ccccc2)oc2c(-c3ccccc3)cccc12` (hydrate or solvate) [Example 67, 2-Benzofurancarboxylic acid, 3-methoxy-7-phenyl-, 2-(phenylsulfonyl)hydrazide], with 186.7 to 187.3 °C.

`COc1c(C(=O)NNS(=O)(=O)c2ccccc2)oc2cc3ccccc3cc12` (hydrate or solvate) [Example 68, Naptho[2,3-b]furan-2-carboxylic acid, 3-methoxy-, 2-(phenylsulfonyl)hydrazide] had a melting point of 205.7 to 207.1 °C.

As to `O=C(NNS(=O)(=O)c1ccccc1Br)c1cc2cc(Cl)cc(Cl)c2o1` (hydrate or solvate) [Example 73, 2-Benzofurancarboxylic acid, 5,7-dichloro 2-[(2-bromophenyl)sulfonyl]-hydrazide], the melting point fell in the range of 196.2 to 196.6 °C. In the case of `Cc1ccc2oc(C(=O)NNS(=O)(=O)c3ccccc3)cc2c1` (hydrate or solvate) [Example 77, Benzofurancarboxylic acid, 5-methyl-, 2-(phenylsulfonyl)hydrazide] it was 183.3 to 183.6 °C. Then `COc1c(C(=O)NNS(=O)(=O)c2ccccc2)oc2ccc(Cl)cc12` (hydrate or solvate) [Example 78, 2-Benzofurancarboxylic acid, 5-chloro-3-methoxy, 2-(phenylsulfonyl)hydrazide], with 242.2 to 244.2 °C; and `Cc1ccc2oc(C(=O)NNS(=O)(=O)c3ccccc3C(F)(F)F)cc2c1` (hydrate or solvate) [Example 79, 2-Benzofurancarboxylic acid, 5-methyl-, 2-[[2-(trifluoromethyl)phenyl]sulfonyl]-hydrazide], with 194 to 195.4 °C. In the case of `Cc1cccc(S(=O)(=O)NNC(=O)c2cc3cc(C)ccc3o2)c1` (hydrate or solvate) [Example 80, 2-Benzofurancarboxylic acid, 5-methyl-, 2-([3-methylphenyl)sulfonyl]hydrazide] it was 184.1 to 186 °C; in that of `Cc1ccc2oc(C(=O)NNS(=O)(=O)c3ccccc3C)cc2c1` (hydrate or solvate) [Example 81, 2-Benzofurancarboxylic acid, 5-methyl-, 2-[2-(methylphenyl)sulfonyl]hydrazide], 174.5 to 174.7 °C. `Cc1ccc2oc(C(=O)NNS(=O)(=O)c3cccc(Cl)c3C)cc2c1` (hydrate or solvate) [Example 82, 2-Benzofurancarboxylic acid, 5-methyl-, 2-[(3-chloro-2-methylphenyl)sulfonyl]-hydrazide]: the melting point lay in the range of 182.4 to 184 °C.

The molecule `Cc1ccc2oc(C(=O)NNS(=O)(=O)c3cccc(Br)c3)cc2c1` (hydrate or solvate) [Example 83, 2-Benzofurancarboxylic acid, 5-methyl-, 2-[3-(bromophenyl)sulfonyl]hydrazide] came in with a melting point of 207.2 to 209.9 °C. With `Cc1ccc2oc(C(=O)NNS(=O)(=O)c3cccc(Cl)c3)cc2c1` (hydrate or solvate) [Example 84, 2-Benzofurancarboxylic acid, 5-methyl-, 2-[(3-chlorophenyl)sulfonyl]hydrazide], the melting point was in the range of 186.1 to 186.3 °C. In turn, `Cc1ccc2oc(C(=O)NNS(=O)(=O)c3ccccc3OC(F)(F)F)cc2c1` (hydrate or solvate) [Example 85, 2-Benzofurancarboxylic acid, 5-methyl-, 2-[[2-(trifluoromethoxy)phenyl]-sulfonyl]hydrazide] gave a melting point of 226.7 to 227 °C.

Take `Cc1cccc2cc(C(=O)NNS(=O)(=O)c3ccccc3)oc12` (hydrate or solvate) [Example 86, 2-Benzofurancarboxylic acid, 7-methyl-, 2-(phenylsulfonyl)hydrazide]: the melting point was in the range of 217.5 to 218 °C.

`Cc1cccc2oc(C(=O)NNS(=O)(=O)c3ccccc3)cc12` (hydrate or solvate) [Example 87, 2-Benzofurancarboxylic acid, 4-methyl-, 2-(phenylsulfonyl)hydrazide]: the melting point was 217 to 218 °C. `Cc1c(C(=O)NNS(=O)(=O)c2ccccc2)oc2ccccc12` (hydrate or solvate) [Example 88, 2-Benzofurancarboxylic acid, 3-methyl-, 2-(phenylsulfonyl)hydrazide] displayed a melting point of 221.6 to 222.2 °C.

Molecule `Cc1ccc2oc(C(=O)NNS(=O)(=O)c3ccccc3)c(C)c2c1` (hydrate or solvate) [Example 89, 2-Benzofurancarboxylic acid, 3,5-dimethyl-, 2-(phenylsulfonyl)hydrazide] gave a melting point of 225.9 to 227.1 °C. Turning to `Cc1c(C(=O)NNS(=O)(=O)c2ccccc2)oc2ccc(Cl)cc12` (hydrate or solvate) [Example 90, 2-Benzofurancarboxylic acid, 5-chloro-3-methyl, 2-(phenylsulfonyl)hydrazide], the melting point was in the range of 246.8 to 247.8 °C. In the case of `Nc1ccc2oc(C(=O)NNS(=O)(=O)c3ccccc3)cc2c1` (hydrate or solvate) [Example 91, 2-Benzofurancarboxylic acid, 5-amino-, 2-(phenylsulfonyl)hydrazide] it was 206.9 to 207.7 °C; in that of `Cc1cccc(S(=O)(=O)NNC(=O)c2ccc3ncccc3c2)c1` (hydrate or solvate) [Example 128, 6-Quinolinecarboxylic acid, 2-[(3-methylphenyl)sulfonyl]hydrazide], 234 to 234.6 °C. `Cc1cccc(S(=O)(=O)NNC(=O)c2cnc3ccccc3c2)c1` (hydrate or solvate) [Example 129, 3-Quinolinecarboxylic acid, 2-[(3-methylphenyl)sulfonyl]hydrazide] had a melting point of 238.6 to 239.4 °C. Then `O=C(NNS(=O)(=O)c1cccc(Cl)c1)c1ccc2ncccc2c1` (hydrate or solvate) [Example 130, 6-Quinolinecarboxylic acid, 2-[(3-chlorophenyl)sulfonyl]hydrazide], with 238.4 to 239.1 °C; and `O=C(NNS(=O)(=O)c1cccc(Cl)c1)c1cnc2ccccc2c1` (hydrate or solvate) [Example 131, 3-Quinolinecarboxylic acid, 2-[(3-chlorophenyl)sulfonyl]hydrazide], with 249.5 to 250.4 °C. Then `O=C(NNS(=O)(=O)c1cccc(F)c1)c1ccc2ncccc2c1` (hydrate or solvate) [Example 132, 6-Quinolinecarboxylic acid, 2-[(3-fluorophenyl)sulfonyl]hydrazide], with 250.6 to 251.3 °C. For the molecule `O=C(NNS(=O)(=O)c1cccc(F)c1)c1cnc2ccccc2c1` (hydrate or solvate) [Example 133, 3-Quinolinecarboxylic acid, 2-[(3-fluorophenyl)sulfonyl]hydrazide], the melting point lay within 247.8 to 248.4 °C. Consider `O=C(NNS(=O)(=O)c1cc(Cl)cc(Cl)c1)c1ccc2ncccc2c1` (hydrate or solvate) [Example 138, 6-Quinolinecarboxylic acid, 2-[(3,5-dichlorophenyl)sulfonyl]hydrazide], for which the melting point lay in the range of 241.6 to 242.3 °C.

The values above are taken from US20050004167A1, “Branched chain amino acid-dependent aminotransferase inhibitors and their use in the treatment of neurodegenerative diseases” (WARNER-LAMBERT COMPANY LLC, priority 2001, published 2005).
